# Measured values from US9107946B2, “Drug combinations comprising a DGAT inhibitor and a PPAR-agonist” (Janssen Pharmaceutica NV, priority 2008, dated 2015).
# Read-outs that look alike come from different tables or passages of the source.
# Columns and labels:
# [1] = 0.04% compound 358 of Class D and/or 0.05% fenofibrate in diet
# Description: Male C57BL/6 mice were housed in individually ventilated cages under controlled temperature (21° C.), humidity (45-65%) and light (12 h-12 h reverse light/dark cycle; Lights on—6 PM-6 AM). Mice were set on 60 kcal % fat energy diet until their average body weight was over 45 grams, at which time they were switched to a 45 kcal % fat diet.
# For the purpose of Tests A, B and C, the mice were moved into modified type-2 cages with: doublewide food cup, wire grids and a tissue for bedding for several months before experiment to adapt to new housing/feeding conditions. Food (Research diets 45 kcal % diet D12451—see Scheme A) was provided in powdered form in a food hopper located off the front of the cage. […]
# The mice were weighted the day before trial onset. […] The food intake the day before trial onset was also measured. […]
# Food cups were filled and weighted daily during the experiment. Body weight was recorded every 2nd or 3rd day.
# Food Intake and Body Weight data were analyzed using General Linear Models procedures appropriate for a 2×2 factorial design with blocking and repeated measures. […] Results were expressed as means±SEM (standard error of the mean). […]
# human DGAT1 = target: T1, human DGAT1 (Homo sapiens, UniProt O75907); assay: DGAT1 FlashPlate assay: inhibition of DGAT1 activity in membrane preparations; format: biochemical; conditions: human DGAT1 membranes from SF9 cells, [3H]-oleoylCoA, 120 min at 37° C.; read-out: pIC50 (-logIC50, 50% inhibition of DGAT1 activity) (converted)
# T1 construct: FLAG (N); made in house; host or cells: SF9 insect cells (pFastBac / baculovirus); total cell membranes
# T1 sequence (O75907 1-488): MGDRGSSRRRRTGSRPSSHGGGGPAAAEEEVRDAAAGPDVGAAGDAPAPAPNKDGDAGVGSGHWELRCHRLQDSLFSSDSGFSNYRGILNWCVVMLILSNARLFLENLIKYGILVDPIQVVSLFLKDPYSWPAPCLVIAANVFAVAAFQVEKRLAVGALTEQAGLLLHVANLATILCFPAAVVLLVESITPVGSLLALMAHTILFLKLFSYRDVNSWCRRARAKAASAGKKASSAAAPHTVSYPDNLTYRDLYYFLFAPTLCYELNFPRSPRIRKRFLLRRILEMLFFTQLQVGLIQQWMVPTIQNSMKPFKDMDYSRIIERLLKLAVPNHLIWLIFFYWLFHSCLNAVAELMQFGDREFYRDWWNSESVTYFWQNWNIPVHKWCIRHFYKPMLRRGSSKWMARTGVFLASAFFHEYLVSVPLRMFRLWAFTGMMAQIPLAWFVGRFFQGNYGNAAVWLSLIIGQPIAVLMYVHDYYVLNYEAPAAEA
# Source text: The inhibiting activity of compounds of Class A, Class B, Class C and Class D on DGAT1 activity was screened in a single well procedure assay using DGAT1 comprising membrane preparations and DGAT1 substrate comprising micelles and determining formed radio-active triacylglycerol coming in close proximity of a flashplate surface by radioluminescence.
# Said assay is described in full detail in WO2006/067071, the content of which is incorporated herein by reference.
# By DGAT1 activity is meant the transfer of coenzyme A activated fatty acids to the 3-position of 1,2-diacylglycerols, thus forming a triglyceride molecule, by enzyme DGAT1.
# human DGAT1 (NM012079.2) was cloned into the pFastBac vector, containing translation start, a FLAG-tag at the N-terminus as described in literature and a viral Kozak sequence (AAX) preceding the ATG to improve expression in insect cells. Expression was done as described in literature (Cases, S., Smith, S. J., Zheng, Y., Myers H. M., Lear, S. R., Sande, E., Novak, S., Collins, C., Welch, C. B., Lusis, A. J., Erickson, S. K. and Farese, R. V. (1998) Proc. Natl. Acad. Sci. USA 95, 13018-13023.) using SF9 cells.
# 72h transfected SF9 cells were collected by centrifugation (13000 rpm-15 min-4° C.) and lysed in 2×500 ml lysisbuffer (0.1M Sucrose, 50 mM KCl, 40 mM KH2PO4, 30 mM EDTA pH 7.2. Cells were homogenized by cell disruptor. After centrifugation 1380 rpm-15 min-4° C. (SN discarded), pellet was resuspended in 500 ml lysisbuffer and total cell membranes collected by ultracentrifugation at 34000 rpm(100 000 g) for 60 min (4° C.). The collected membranes were resuspended in lysis buffer, divided in aliquots and stored with 10% glycerol at −80° C. until use.
# • a) 1,2-dioleoyl-sn-glycerol, 10 mg/ml (1,2-diacylglycerol (DAG)) Dissolve in acetonitrile; evaporate the acetonitrile solution under nitrogen and reconstitute in chloroform at a final concentration of 10 mg/ml. • b) L-α-phosphatidylcholine, 1 mg/ml (phosphatidylcholine (PC)) • Dissolve in chloroform at a final concentration of 1 mg/ml and store at 4° C. • c) L-α-phosphatidyl-L-serine, 1 mg/ml (phophatidylserine (PS)) • Dissolve in chloroform at a final concentration of 1 mg/ml and store at 4° C. Method
# Add 1 ml dioleoyl-sn-glycerol (10 mg/ml) to 10 ml of L-α-phosphatidylcholine (1 mg/ml) and 10 ml of L-α-phosphatidyl-L-serine (1 mg/ml) in a thick glass recipient. Evaporate under nitrogen and put on ice for 15 min Reconstitute in 10 ml Tris/HCl (10 mM, pH 7.4) by sonication on ice. The sonification process includes sonification cycles of 10 seconds in the sonification bath followed by 10 seconds cool down on ice and repeating this sonification cycle till a homogeneous solution is obtained (takes about 15 min). The thus obtained micelles are stored at −20° C. till later use and contain DAG at a final concentration of 1.61 mM.
# • a) Assaybuffer • 50 mM Tris-HCl (pH 7.4), 150 mM MgCl2, 1 mM EDTA, 0.2% BSA. • b) N-ethylmaleimide, 5M • Dissolve 5 g into a final volume of 8 ml DMSO 100% and store at −20° C. in aliquots till later use. • c) Substrate mix (for 1 384 well plate=3840 μl) • 612 μl micelles stock (51 μM final) • 16.6 μl oleoylCoA 9.7 mM • 23 μl [^3H]-oleoylCoA (49 Ci/mmol, 500 μCi/ml) • 3188.4 μl Tris pH 7.4, 10 mM • d) Enzyme mix (for 1 384 well plate=3520 μl) (5 μg/ml) • Add 11.73 μl of DGAT membrane stock (1500 μg/ml stock) to 3508 μl assay buffer. • e) Stop mix (for 1 384 well plate=7.68 ml) (250 mM) • Add 384 μl of N-ethylmaleimide (5M) to 3.456 ml DMSO 100%, and further dilute 3.84 ml of said solution with 3.84 ml DMSO 10%. Method
# DGAT activity in membrane preparations was assayed in 50 mM Tris-HCl (pH 7.4), 150 mM MgCl2, 1 mM EDTA and 0.2% BSA, containing 50 μM DAG, 32 μg/ml PC/PS and 8.4 μM [^3H]-oleoylCoA (at a specific activity of 30 nCi/well) in a final volume of 50 μl in 384-well format using the red shifted Basic Image FlashPlate™ (Perkin Elmer Cat.No. SMP400). […]
# [2] = Test A: food intake, body weight and serum biochemistry, DGAT inhibitor, fenofibrate or both in diet; format: in vivo, DIO C57BL/6 mice; conditions: 12 day trial, 45 kcal % fat diet; for cumulative food intake less than the control group: 0.04% D and/or 0.05% F in diet, only D+F significant (P<0.05)
# Source text: Diet was provided in powder form.
# At the end of test A, blood was collected under isoflurane anesthesia for serum biochemistry determinations.
Compound,"21 days body weight change compared to controls (2x2 factorial) ([1]; main effects P<0.05, interaction P>0.05)","daily food intake compared to control mice ([1]; 45 kcal % fat diet, n=8/group)",IC50 (human DGAT1) [nM],melting point [°C],cumulative food intake less than the control group [2] [%],daily food intake compared to control mice ([2]; 0.04% compound 223 of Class D (D) and/or 0.05% fenofibrate (F) in diet)
"COc1cc(CNC(=O)c2ccc(N3CCN(C(=O)Cc4c(Cl)cc(CN5CCCC5)cc4Cl)CC3)cc2)cc(OC)c1 [358-Class D, 4-[4-[[2,6-dichloro-4-(1-pyrrolidinylmethyl)phenyl]acetyl]-1-piperazinyl]-N-[(3,5-dimethoxyphenyl)methyl]-benzamide]",gained less weight than controls,not significantly less than control mice,25.7,199 to 200,–,–
"CC(=O)N1CCN(Cc2cc(Cl)c(CC(=O)N3CCN(c4ccc(C(=O)NCc5cccc(N6CCCC6)c5)cc4)CC3)c(Cl)c2)CC1 [361-Class D, 4-[4-[[4-[(4-acetyl-1-piperazinyl)methyl]-2,6-dichlorophenyl]acetyl]-1-piperazinyl]-N-[[3-(1-pyrrolidinyl)phenyl]methyl]-benzamide]",–,–,13.5,164 to 166,–,–
"COc1cc(CNC(=O)c2ccc(N3CCN(C(=O)Cc4c(Cl)cc(CN5CCN(C(C)=O)CC5)cc4Cl)CC3)cc2)cc(OC)c1 [362-Class D, 4-[4-[[4-[(4-acetyl-1-piperazinyl)methyl]-2,6-dichlorophenyl]acetyl]-1-piperazinyl]-N-[(3,5-dimethoxyphenyl)methyl]-benzamide]",–,–,9.12,123 to 126,–,–
"CS(=O)(=O)N1CCN(Cc2cc(Cl)c(CC(=O)N3CCN(c4ccc(C(=O)NCc5cccc(N6CCCC6)c5)cc4)CC3)c(Cl)c2)CC1 [363-Class D, 4-[4-[[2,6-dichloro-4-[[4-(methylsulfonyl)-1-piperazinyl]methyl]phenyl]acetyl]-1-piperazinyl]-N-[[3-(1-pyrrolidinyl)phenyl]methyl]-benzamide]",–,–,11.5,241 to 243,–,–
"COc1cc(CNC(=O)c2ccc(N3CCN(C(=O)Cc4c(Cl)cc(CN5CCN(S(C)(=O)=O)CC5)cc4Cl)CC3)cc2)cc(OC)c1 [364-Class D, 4-[4-[[2,6-dichloro-4-[[4-(methylsulfonyl)-1-piperazinyl]methyl]phenyl]acetyl]-1-piperazinyl]-N-[(3,5-dimethoxyphenyl)methyl]-benzamide]",–,–,5.75,152 to 154,–,–
COc1ccc(CC(=O)Nc2ccc(N3CCN(C(=O)Nc4c(Cl)cc(CN5CCCC5)cc4Cl)CC3)cc2)cc1 [compound 223 of Class D],–,–,–,–,3.2,not significantly less than control mice
"CC(C)OC(=O)C(C)(C)Oc1ccc(C(=O)c2ccc(Cl)cc2)cc1 [fenofibrate, reference compound]",–,–,–,–,7.5,–
